Ends that are not written are not given here.
Key:
[1] = system: Mannheimia haemolytica ATCC 33393; test: MIC, broth dilution; format: cell-based; details: Table 11; highest concentration 25 μg/mL
How it was run: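 Read-out is the lowest peptide concentration showing no growth after an overnight standing culture at 37 °C. Two-fold serial dilutions of 95%-pure peptide were tested against M. haemolytica ATCC 33393 at OD 6×10^−4 in cation-adjusted MH broth.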

[2] = system: Candida duobushaemulonii AR 394; test: MIC, YPD broth, CDC and FDA AR Candida isolate panel; format: cell-based
How it was run: (§1)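 Growth inhibition by peptides (95% pure) is scored after standing overnight incubation at 37° C. Cells at an optical density of […] are exposed to a doubling dilution series of peptide.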

[3] = system: Candida haemulonii AR 393; test: as above; format: cell-based; details: Table 9 below the line: only 200 or 100 μg/mL tested; values reported as 100 are ≤100 μg/mL
How it was run: as §1

Candida krusei AR 397 = test: as above; format: cell-based
How it was run: as §1

[4] = system: Saccharomyces cerevisiae AR 400; test: as above; format: cell-based
How it was run: as §1

[5] = system: Candida duobushaemulonii AR 392; test: as above; format: cell-based
How it was run: as §1

[6] = system: Saccharomyces cerevisiae AR 399; test: as above; format: cell-based
How it was run: as §1

[7] = system: Candida duobushaemulonii AR 391; test: as above; format: cell-based
How it was run: as §1

[8] = system: Candida haemulonii AR 395; test: as above; format: cell-based; details: Table 9 below the line: only 200 or 100 μg/mL tested; values reported as 100 are ≤100 μg/mL
How it was run: as §1

[9] = system: Candida lusitaniae AR 398; test: as above; format: cell-based
How it was run: as §1

Kodamae ohmeri AR 396 = test: as above; format: cell-based
How it was run: as §1

[10] = system: S. aureus ATCC BAA-2313 (MRSA SCCmec type XI); test: MIC, broth dilution; format: cell-based, Staphylococcus aureus; details: Table 5; STIP3 variants, highest concentration 100 μg/mL
How it was run: (§2)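 MIC defined as the lowest peptide level giving no growth after overnight standing incubation at 37° C. Bacteria at OD 6×10^−4 in cation-adjusted MH broth met 2-fold serial peptide dilutions; peptide purity 95%.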

[11] = system: S. aureus ATCC BAA-1683 (MRSA SCCmec type IV); test: MIC, broth dilution; format: cell-based, Staphylococcus aureus; details: Table 5; STIP3 variants, highest concentration 100 μg/mL
How it was run: as §2

[12] = system: S. aureus ATCC BAA-44 (MRSA SCCmec type I); test: MIC, broth dilution; format: cell-based, Staphylococcus aureus; details: Table 5; STIP3 variants, highest concentration 100 μg/mL
How it was run: as §2

[13] = system: S. aureus ATCC BAA-2094 (MRSA SCCmec type V); test: MIC, broth dilution; format: cell-based, Staphylococcus aureus; details: Table 5; STIP3 variants, highest concentration 100 μg/mL
How it was run: as §2

[14] = system: S. aureus ATCC BAA-41 (MRSA SCCmec type II); test: MIC, broth dilution; format: cell-based, Staphylococcus aureus; details: Table 5; STIP3 variants, highest concentration 100 μg/mL
How it was run: as §2

[15] = system: S. aureus ATCC 33592 (MRSA SCCmec type III); test: MIC, broth dilution; format: cell-based, Staphylococcus aureus; details: Table 5; STIP3 variants, highest concentration 100 μg/mL
How it was run: as §2

[16] = system: S. aureus ATCC BAA-42 (MRSA SCCmec type VI); test: MIC, broth dilution; format: cell-based, Staphylococcus aureus; details: Table 5; STIP3 variants, highest concentration 100 μg/mL
How it was run: as §2

S. aureus ATCC 29213 = test: MIC, broth dilution; format: cell-based, Staphylococcus aureus; details: Table 5; STIP3 variants, highest concentration 100 μg/mL
How it was run: as §2

C. albicans MYA-2876 = test: MIC, YPD broth; format: cell-based, Candida albicans; details: Table 8
How it was run: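 Yeast cells were diluted in YPD broth, and 180 μl aliquots were mixed with 20 μl of peptide from 2-fold serial dilutions in flat-bottom 96-well microtitre plates. Wells receiving 20 μl sterile water served as controls. After standing incubation overnight at 37° C, the MIC was taken as the lowest peptide concentration with no visible microbial growth.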

C. albicans Y537 = test: MIC, YPD broth; format: cell-based, Candida albicans; details: Table 8
[17] = Table 9 below the line: only 200 or 100 μg/mL tested, values reported as 100 are ≤100 μg/mL
[18] = Table 9 top part: titrations from 1.56 to 100 μg/mL

| Substance | MIC (μg/mL) M. haemolytica [1] | MIC (μg/mL) Candida duobushaemulonii AR 394 [2, 17] | MIC (μg/mL) Candida haemulonii AR 393 [3] | MIC (μg/mL) Candida krusei AR 397 (Candida krusei AR 397; [17]) | MIC (μg/mL) Saccharomyces cerevisiae AR 400 [4, 17] | MIC (μg/mL) Candida duobushaemulonii AR 392 [5, 17] | MIC (μg/mL) Saccharomyces cerevisiae AR 399 [6, 17] | MIC (μg/mL) Candida duobushaemulonii AR 391 [7, 17] | MIC (μg/mL) Candida lusitaniae AR 398 [9, 17] | MIC (μg/mL) Kodamae ohmeri AR 396 (Kodamae ohmeri AR 396; [17]) | MIC S. aureus ATCC BAA 2313 (XI) [10] | MIC S. aureus ATCC BAA 1683 (IV) [11] | MIC S. aureus ATCC BAA 44 (I) [12] | MIC S. aureus ATCC BAA 2094 (V) [13] | MIC S. aureus ATCC BAA 41 (II) [14] | MIC S. aureus ATCC 33592 (III) [15] | MIC S. aureus ATCC BAA 42 (VI) [16] | MIC S. aureus ATCC 29213 (S. aureus ATCC 29213) | MIC C. albicans MYA-2876 (C. albicans MYA-2876) | MIC C. albicans Y537 (C. albicans Y537) | also measured |
| --- | --- | --- | --- | --- | --- | --- | --- | --- | --- | --- | --- | --- | --- | --- | --- | --- | --- | --- | --- | --- | --- |
| TVGVLVKWILDTVKKFA [STIP3-8, TVGVLVKWILDTVKKFA] | > (> symbol indicates that no inhibition was observed at the highest concentration of peptide tested: 25 μg/mL) | > (values below the line were determined using two concentrations of peptide 200 or 100 μg/mL) | > (values below the line were determined using two concentrations of peptide 200 or 100 μg/mL) | ≤ 100 µg/mL | ≤ 100 µg/mL | > (values below the line were determined using two concentrations of peptide 200 or 100 μg/mL) | ≤ 100 µg/mL | > (values below the line were determined using two concentrations of peptide 200 or 100 μg/mL) | 180 µg/mL | > (values below the line were determined using two concentrations of peptide 200 or 100 μg/mL) | 100 µg/mL | > (no inhibition was observed at the highest concentration of peptide tested: 100 μg/mL for the STIP3 variants) | 100 µg/mL | 100 µg/mL | 100 µg/mL | 100 µg/mL | 100 µg/mL | 100 µg/mL | > (> symbol indicates that no inhibition was observed at the highest concentration of peptide tested: 100 μg/mL) | – | MIC (μg/mL) Candida haemulonii AR 395 [8]: > (values below the line were determined using two concentrations of peptide 200 or 100 μg/mL) |
| TVKALVKWILKTVAKFA [STIP3-19, TVKALVKWILKTVAKFA] | 12.5 µg/mL | – | – | – | – | – | – | – | – | – | 25 µg/mL | 25 µg/mL | 25 µg/mL | 25 µg/mL | 50 µg/mL | 25 µg/mL | 50 µg/mL | 50 µg/mL | > (> symbol indicates that no inhibition was observed at the highest concentration of peptide tested: 100 μg/mL) | > (> symbol indicates that no inhibition was observed at the highest concentration of peptide tested: 100 μg/mL) | MIC (μg/mL) Candida duobushaemulonii AR 394 [2, 18]: 100 µg/mL; MIC (μg/mL) Candida krusei AR 397 (Candida krusei AR 397; [18]): 100 µg/mL; MIC (μg/mL) Saccharomyces cerevisiae AR 400 [4, 18]: 50 µg/mL; MIC (μg/mL) Candida duobushaemulonii AR 392 [5, 18]: 100 µg/mL; MIC (μg/mL) Saccharomyces cerevisiae AR 399 [6, 18]: 100 µg/mL; MIC (μg/mL) Candida duobushaemulonii AR 391 [7, 18]: 50 µg/mL; MIC (μg/mL) Candida lusitaniae AR 398 [9, 18]: 50 µg/mL; MIC (μg/mL) Kodamae ohmeri AR 396 (Kodamae ohmeri AR 396; [18]): > (MIC values reported at the top of the table (above the double line) are based on titrations from 1.56 to 100 μg/mL) |
| TVKALVKWILKTVAKFW [STIP3-21, TVKALVKWILKTVAKFW] | 12.5 µg/mL | – | – | – | – | – | – | – | – | – | 12.5 µg/mL | 12.5 µg/mL | 25 µg/mL | 12.5 µg/mL | 25 µg/mL | 25 µg/mL | 25 µg/mL | 25 µg/mL | > (> symbol indicates that no inhibition was observed at the highest concentration of peptide tested: 100 μg/mL) | > (> symbol indicates that no inhibition was observed at the highest concentration of peptide tested: 100 μg/mL) | MIC (μg/mL) Candida krusei AR 397 (Candida krusei AR 397; [18]): 100 µg/mL; MIC (μg/mL) Saccharomyces cerevisiae AR 400 [4, 18]: 200 µg/mL; MIC (μg/mL) Candida duobushaemulonii AR 392 [5, 18]: > (MIC values reported at the top of the table (above the double line) are based on titrations from 1.56 to 100 μg/mL); MIC (μg/mL) Candida lusitaniae AR 398 [9, 18]: 50 µg/mL; MIC (μg/mL) Kodamae ohmeri AR 396 (Kodamae ohmeri AR 396; [18]): > (MIC values reported at the top of the table (above the double line) are based on titrations from 1.56 to 100 μg/mL) |
| TVKALVKWILKTVAKFW-NH2 [STIP3-31, TVKALVKWILKTVAKFW-NH2] | 6.25 µg/mL | > (values below the line were determined using two concentrations of peptide 200 or 100 μg/mL) | > (values below the line were determined using two concentrations of peptide 200 or 100 μg/mL) | > (values below the line were determined using two concentrations of peptide 200 or 100 μg/mL) | > (values below the line were determined using two concentrations of peptide 200 or 100 μg/mL) | > (values below the line were determined using two concentrations of peptide 200 or 100 μg/mL) | > (values below the line were determined using two concentrations of peptide 200 or 100 μg/mL) | > (values below the line were determined using two concentrations of peptide 200 or 100 μg/mL) | > (values below the line were determined using two concentrations of peptide 200 or 100 μg/mL) | > (values below the line were determined using two concentrations of peptide 200 or 100 μg/mL) | 25 µg/mL | 25 µg/mL | 25 µg/mL | 25 µg/mL | 25 µg/mL | 25 µg/mL | 50 µg/mL | 25 µg/mL | > (> symbol indicates that no inhibition was observed at the highest concentration of peptide tested: 100 μg/mL) | > (> symbol indicates that no inhibition was observed at the highest concentration of peptide tested: 100 μg/mL) | – |
| TVRALVRWILRTVARFA [STIP3-23, TVRALVRWILRTVARFA] | 12.5 µg/mL | > (values below the line were determined using two concentrations of peptide 200 or 100 μg/mL) | > (values below the line were determined using two concentrations of peptide 200 or 100 μg/mL) | > (values below the line were determined using two concentrations of peptide 200 or 100 μg/mL) | ≤ 100 µg/mL | > (values below the line were determined using two concentrations of peptide 200 or 100 μg/mL) | ≤ 100 µg/mL | > (values below the line were determined using two concentrations of peptide 200 or 100 μg/mL) | ≤ 100 µg/mL | > (values below the line were determined using two concentrations of peptide 200 or 100 μg/mL) | 25 µg/mL | 25 µg/mL | 25 µg/mL | 50 µg/mL | 6.25 µg/mL | 25 µg/mL | 50 µg/mL | 25 µg/mL | > (> symbol indicates that no inhibition was observed at the highest concentration of peptide tested: 100 μg/mL) | – | MIC (μg/mL) Candida haemulonii AR 395 [8]: > (values below the line were determined using two concentrations of peptide 200 or 100 μg/mL) |
